# Measurements: patent publication US20240016781A1, “TREATMENT OF KRAS MUTANT CANCERS” (MEI Pharma, Inc., priority 2020, published 2024)
# Read-outs that look alike come from different tables or passages of the source.
# Columns and labels:
# Assay in all cases: 72-hour CellTiter-Glo 2.0 growth inhibition screen (single agent, 9x9 combination dose matrix);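 on Best CI Level: inhibition effect level at which the best CI was calculated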
# Assay type in all cases: cell-based
# MIA PaCa-2 = test system: MIA PaCa-2;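 on Best CI Level: inhibition effect level at which the best CI was calculated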
# NCI-H1373 = settings: for Emax: NCI-H1373
# NCI-H1792 = test system: NCI-H1792;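 on Best CI Level: inhibition effect level at which the best CI was calculated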
# NCI-H2030 = settings: for Emax: NCI-H2030
# NCI-H23 = test system: NCI-H23;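 on Best CI Level: inhibition effect level at which the best CI was calculated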
# [1] = Homo sapiens, MIA PaCa-2, Pancreas, Additional Single Agent Responses (inhibition, % I), 72 h
# [2] = MIA PaCa-2 (KRAS G12C), enhancer + MEI-522 (Voruciclib), 72 h;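 on Best CI Level: inhibition effect level at which the best CI was calculated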
# [3] = MIA PaCa-2, Pancreas, Additional Single Agent Responses (inhibition, % I), 72 h
# [4] = MIA PaCa-2, Pancreas, growth inhibition (GI), AUC, single agent, 72 h
# [5] = enhancer combined with MEI-522 (Voruciclib), MIA PaCa-2 (Pancreas), 72 hours, inhibition data
# [6] = NCl-H1373 (KRAS G12C), enhancer + MEI-522 (Voruciclib), 72 h
# [7] = NCl-H1373, Lung, Additional Single Agent Responses (inhibition, % I), 72 h
# [8] = NCl-H1373, Lung, growth inhibition (GI), AUC, single agent, 72 h
# [9] = enhancer combined with MEI-522 (Voruciclib), NCl-H1373 (Lung), 72 hours, inhibition data
# [10] = NCl-H1792 (KRAS G12C), enhancer + MEI-522 (Voruciclib), 72 h
# [11] = NCl-H1792, Lung, Additional Single Agent Responses (inhibition, % I), 72 h
# [12] = NCl-H1792, Lung, growth inhibition (GI), AUC, single agent, 72 h
# [13] = enhancer combined with MEI-522 (Voruciclib), NCl-H1792 (Lung), 72 hours, inhibition data
# [14] = NCl-H2030 (KRAS G12C), enhancer + MEI-522 (Voruciclib), 72 h
# [15] = NCl-H2030, Lung, Additional Single Agent Responses (inhibition, % I), 72 h
# [16] = NCl-H2030, Lung, growth inhibition (GI), AUC, single agent, 72 h
# [17] = enhancer combined with MEI-522 (Voruciclib), NCl-H2030 (Lung), 72 hours, inhibition data
# [18] = Homo sapiens, NCI-H23, NCl-H23, Lung, Additional Single Agent Responses (inhibition, % I), 72 h
# [19] = NCl-H23 (KRAS G12C), enhancer + MEI-522 (Voruciclib), 72 h
# [20] = NCl-H23, Lung, Additional Single Agent Responses (inhibition, % I), 72 h
# [21] = NCl-H23, Lung, growth inhibition (GI), AUC, single agent, 72 h
# [22] = enhancer combined with MEI-522 (Voruciclib), NCl-H23 (Lung), 72 hours, inhibition data
# [23] = MIA PaCa-2, Pancreas, growth inhibition (GI) curve, single agent, 72 h
# [24] = NCl-H1373, Lung, growth inhibition (GI) curve, single agent, 72 h
# [25] = NCl-H1792, Lung, growth inhibition (GI) curve, single agent, 72 h
# [26] = NCl-H2030, Lung, growth inhibition (GI) curve, single agent, 72 h
# [27] = NCl-H23, Lung, growth inhibition (GI) curve, single agent, 72 h
structure (smiles),measurement,setting,value
C=CC(=O)N1CCN(c2nc(=O)n(-c3c(C)ccnc3C(C)C)c3nc(-c4c(O)cccc4F)c(F)cc23)[C@@H](C)C1 [AMG510],EC50,MIA PaCa-2; [1],5.7 nM
same,IC50,MIA PaCa-2; [1],14.7 nM
same,Emax,"MIA PaCa-2; Homo sapiens, MIA PaCa-2, Pancreas, Additional Single Agent Responses, 72 h, read-out: Max Response (% I)",63%
same,GI50,"MIA PaCa-2; Homo sapiens, MIA PaCa-2, Pancreas, growth inhibition (GI) curve, single agent, 72 h",9.2 nM
same,Emax,"MIA PaCa-2; Homo sapiens, MIA PaCa-2, Pancreas, growth inhibition (GI), single agent, 72 h, read-out: Max Response (% GI)",77%
same,Best CI,MIA PaCa-2; [2],0.65
same,Bliss Volume,MIA PaCa-2; [2],3.75
same,HSA volume,MIA PaCa-2; [2],5.03
same,Loewe Volume,MIA PaCa-2; [2],4.68
same,Synergy Score,MIA PaCa-2; [2],6.04
same,Response Area,MIA PaCa-2; [3],3.12
same,Response Area,MIA PaCa-2; [4],3.77
same,Best CI,MIA PaCa-2; [5],0.60
same,Best CI Level,MIA PaCa-2; [5],75
same,Bliss Volume,MIA PaCa-2; [5],0.19
same,HSA volume,MIA PaCa-2; [5],2.76
same,Loewe Volume,MIA PaCa-2; [5],2.52
same,Synergy Score,MIA PaCa-2; [5],2.16
same,EC50,"NCI-H1373; Homo sapiens, NCI-H1373, 72 h, NCl-H1373, Lung, Additional Single Agent Responses (inhibition, % I), 72 h",2.5 nM
same,EC50,"NCI-H1373; Homo sapiens, NCI-H1373, 72 h, NCl-H1373, Lung, growth inhibition (GI) curve, single agent, 72 h",2.1 nM
same,Emax,"NCI-H1373; Homo sapiens, NCl-H1373, Lung, Additional Single Agent Responses, 72 h, read-out: Max Response (% I)",49%
same,Emax,"NCI-H1373; Homo sapiens, NCl-H1373, Lung, growth inhibition (GI), single agent, 72 h, read-out: Max Response (% GI)",65%
same,Best CI,NCI-H1373; [6],0.28
same,Bliss Volume,NCI-H1373; [6],2.91
same,HSA volume,NCI-H1373; [6],1.67
same,Loewe Volume,NCI-H1373; [6],2.62
same,Synergy Score,NCI-H1373; [6],4.10
same,Response Area,NCI-H1373; [7],2.05
same,Response Area,NCI-H1373; [8],2.56
same,Best CI,NCI-H1373; [9],0.93
same,Best CI Level,NCI-H1373; [9],20
same,Bliss Volume,NCI-H1373; [9],−1.68
same,HSA volume,NCI-H1373; [9],0.90
same,Loewe Volume,NCI-H1373; [9],0.62
same,Synergy Score,NCI-H1373; [9],1.25
same,EC50,"NCI-H1792; Homo sapiens, NCI-H1792, NCl-H1792, Lung, Additional Single Agent Responses (inhibition, % I), 72 h",4.2 nM
same,Emax,"NCI-H1792; Homo sapiens, NCI-H1792, NCl-H1792, Lung, Additional Single Agent Responses, 72 h, read-out: Max Response (% I)",29%
same,Emax,"NCI-H1792; Homo sapiens, NCI-H1792, NCl-H1792, Lung, growth inhibition (GI), single agent, 72 h, read-out: Max Response (% GI)",37%
same,Best CI,NCI-H1792; [10],0.36
same,Bliss Volume,NCI-H1792; [10],5.76
same,HSA volume,NCI-H1792; [10],3.59
same,Loewe Volume,NCI-H1792; [10],4.64
same,Synergy Score,NCI-H1792; [10],3.62
same,Response Area,NCI-H1792; [11],1.05
same,Response Area,NCI-H1792; [12],1.34
same,Best CI,NCI-H1792; [13],0.46
same,Bliss Volume,NCI-H1792; [13],2.25
same,HSA volume,NCI-H1792; [13],2.86
same,Loewe Volume,NCI-H1792; [13],3.31
same,Synergy Score,NCI-H1792; [13],1.87
same,Best CI Level,"NCI-H1792; enhancer combined with MEI-522 (Voruciclib), NCl-H1792 (Lung), 72 hours, inhibition data, unit assumed",35%
same,EC50,"NCI-H2030; Homo sapiens, NCI-H2030, 72 h, NCl-H2030, Lung, Additional Single Agent Responses (inhibition, % I), 72 h",4.3 nM
same,EC50,"NCI-H2030; Homo sapiens, NCI-H2030, 72 h, NCl-H2030, Lung, growth inhibition (GI) curve, single agent, 72 h",4.4 nM
same,Emax,"NCI-H2030; Homo sapiens, NCl-H2030, Lung, Additional Single Agent Responses, 72 h, read-out: Max Response (% I)",38%
same,Emax,"NCI-H2030; Homo sapiens, NCl-H2030, Lung, growth inhibition (GI), single agent, 72 h, read-out: Max Response (% GI)",47%
same,Best CI,NCI-H2030; [14],0.47
same,Bliss Volume,NCI-H2030; [14],6.35
same,HSA volume,NCI-H2030; [14],4.90
same,Loewe Volume,NCI-H2030; [14],4.51
same,Synergy Score,NCI-H2030; [14],5.13
same,Response Area,NCI-H2030; [15],1.65
same,Response Area,NCI-H2030; [16],2.05
same,Best CI,NCI-H2030; [17],0.70
same,Best CI Level,NCI-H2030; [17],50
same,Bliss Volume,NCI-H2030; [17],1.77
same,HSA volume,NCI-H2030; [17],3.51
same,Loewe Volume,NCI-H2030; [17],3.26
same,Synergy Score,NCI-H2030; [17],2.04
same,EC50,NCI-H23; [18],6.7 nM
same,IC50,NCI-H23; [18],157 nM
same,Emax,"NCI-H23; Homo sapiens, NCI-H23, NCl-H23, Lung, Additional Single Agent Responses, 72 h, read-out: Max Response (% I)",56%
same,GI50,"NCI-H23; Homo sapiens, NCI-H23, NCl-H23, Lung, growth inhibition (GI) curve, single agent, 72 h",23.2 nM
same,Emax,"NCI-H23; Homo sapiens, NCI-H23, NCl-H23, Lung, growth inhibition (GI), single agent, 72 h, read-out: Max Response (% GI)",71%
same,Best CI,NCI-H23; [19],0.76
same,Bliss Volume,NCI-H23; [19],8.97
same,HSA volume,NCI-H23; [19],6.92
same,Loewe Volume,NCI-H23; [19],6.28
same,Synergy Score,NCI-H23; [19],8.27
same,Response Area,NCI-H23; [20],2.82
same,Response Area,NCI-H23; [21],3.60
same,Best CI,NCI-H23; [22],0.53
same,Best CI Level,NCI-H23; [22],80
same,Bliss Volume,NCI-H23; [22],1.69
same,HSA volume,NCI-H23; [22],4.54
same,Loewe Volume,NCI-H23; [22],3.98
same,Synergy Score,NCI-H23; [22],3.46
CN1CC[C@@H](c2c(O)cc(O)c3c(=O)cc(-c4ccc(C(F)(F)F)cc4Cl)oc23)[C@@H]1CO [MEI-522(Voruciclib)],EC50,MIA PaCa-2; [3],894 nM
same,IC50,MIA PaCa-2; [3],1070 nM
same,Response Area,MIA PaCa-2; [3],2.64
same,Max Response (% I),"MIA PaCa-2; MIA PaCa-2, Pancreas, Additional Single Agent Responses, 72 h",85 % I
same,EC50,MIA PaCa-2; [23],1130 nM
same,GI50,MIA PaCa-2; [23],868 nM
same,Response Area,MIA PaCa-2; [4],3.63
same,Max Response (% GI),"MIA PaCa-2; MIA PaCa-2, Pancreas, growth inhibition (GI), single agent, 72 h",116 % GI
same,EC50,NCI-H1373; [7],1030 nM
same,IC50,NCI-H1373; [7],1230 nM
same,Response Area,NCI-H1373; [7],2.58
same,Max Response (% I),"NCI-H1373; NCl-H1373, Lung, Additional Single Agent Responses, 72 h",86 % I
same,EC50,NCI-H1373; [24],1390 nM
same,GI50,NCI-H1373; [24],972 nM
same,Response Area,NCI-H1373; [8],4.24
same,Max Response (% GI),"NCI-H1373; NCl-H1373, Lung, growth inhibition (GI), single agent, 72 h",147 % GI
same,EC50,NCI-H1792; [11],1350 nM
same,IC50,NCI-H1792; [11],1360 nM
same,Response Area,NCI-H1792; [11],2.83
same,Max Response (% I),"NCI-H1792; NCl-H1792, Lung, Additional Single Agent Responses, 72 h",98 % I
same,EC50,NCI-H1792; [25],1910 nM
same,GI50,NCI-H1792; [25],1440 nM
same,Response Area,NCI-H1792; [12],5.24
same,Max Response (% GI),"NCI-H1792; NCl-H1792, Lung, growth inhibition (GI), single agent, 72 h",192 % GI
same,EC50,NCI-H2030; [15],1050 nM
same,IC50,NCI-H2030; [15],1060 nM
same,Response Area,NCI-H2030; [15],2.92
same,Max Response (% I),"NCI-H2030; NCl-H2030, Lung, Additional Single Agent Responses, 72 h",98 % I
same,EC50,NCI-H2030; [26],1680 nM
same,GI50,NCI-H2030; [26],1130 nM
same,Response Area,NCI-H2030; [16],5.28
same,Max Response (% GI),"NCI-H2030; NCl-H2030, Lung, growth inhibition (GI), single agent, 72 h",188 % GI
same,EC50,NCI-H23; [20],1130 nM
same,IC50,NCI-H23; [20],1180 nM
same,Response Area,NCI-H23; [20],2.83
same,Max Response (% I),"NCI-H23; NCl-H23, Lung, Additional Single Agent Responses, 72 h",96 % I
same,EC50,NCI-H23; [27],1770 nM
same,GI50,NCI-H23; [27],1260 nM
same,Response Area,NCI-H23; [21],5.00
same,Max Response (% GI),"NCI-H23; NCl-H23, Lung, growth inhibition (GI), single agent, 72 h",181 % GI
